Measurements taken from the supplement of paper PMC10307832.

Columns and labels:
Test in all cases: relative viability (nuclei count vs DMSO), 5 days (fraction); higher = more cells survive
[1] = system: NCI-H322M
Outline: (§1)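 Five library-drug doses in √10 steps were combined with a fixed anchor-drug dose, or a single drug was given alone, by pin tool to lung cancer cell lines in 1536-well plates the day after seeding. Nuclei were stained and counted after 5 days. Relative viability is the nuclei count in treated wells over that in vehicle wells, taken as the median of duplicate plates.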

[2] = system: ABC-1
Outline: as §1

[3] = system: NCI-H1651
Outline: as §1

[4] = system: NCI-H1355
Outline: as §1

[5] = system: NCI-H1437
Outline: as §1

[6] = system: EKVX
Outline: as §1

[7] = system: CAL-12T
Outline: as §1

[8] = system: HCC-827
Outline: as §1

[9] = system: LK-2
Outline: as §1

[10] = system: NCI-H1734
Outline: as §1

[11] = system: PC-3 [JPC-3]
Outline: as §1

[12] = system: H3255
Outline: as §1

[13] = system: HCC-15
Outline: as §1

[14] = system: PC-14
Outline: as §1

[15] = system: RERF-LC-KJ
Outline: as §1

[16] = system: NCI-H2405
Outline: as §1

Compound: Clc1ccc(Nc2nnc(Cc3ccncc3)c3ccccc23)cc1 [Vatalanib] + NC(=O)Nc1cc(-c2cccc(F)c2)sc1C(=O)N[C@H]1CCCNC1 [AZD7762] (partner 0.2 µM)
- relative viability ([1]; first compound 0.04 µM): 0.543
- relative viability ([1]; first compound 0.1265 µM): 0.527
- relative viability ([1]; first compound 0.4 µM): 0.503
- relative viability ([1]; first compound 4 µM): 0.47
- relative viability ([2]; first compound 0.04 µM): 0.7
- relative viability ([2]; first compound 0.4 µM): 0.744
- relative viability ([2]; first compound 1.265 µM): 0.853
- relative viability ([2]; first compound 4 µM): 0.719
- relative viability ([3]; first compound 0.04 µM): 0.441
- relative viability ([3]; first compound 0.1265 µM): 0.471
- relative viability ([3]; first compound 0.4 µM): 0.46
- relative viability ([3]; first compound 1.265 µM): 0.359
- relative viability ([3]; first compound 4 µM): 0.4
- relative viability ([4]; first compound 0.04 µM): 0.792
- relative viability ([4]; first compound 0.1265 µM): 0.745
- relative viability ([4]; first compound 0.4 µM): 0.767
- relative viability ([4]; first compound 1.265 µM): 0.578
- relative viability ([4]; first compound 4 µM): 0.597
- relative viability ([5]; first compound 0.04 µM): 1.07
- relative viability ([5]; first compound 0.1265 µM): 1.08
- relative viability ([5]; first compound 0.4 µM): 1.18
- relative viability ([5]; first compound 1.265 µM): 1.06
- relative viability ([5]; first compound 4 µM): 0.997
- relative viability ([6]; first compound 0.04 µM): 0.646
- relative viability ([6]; first compound 0.1265 µM): 0.623
- relative viability ([6]; first compound 0.4 µM): 0.679
- relative viability ([6]; first compound 1.265 µM): 0.679
- relative viability ([6]; first compound 4 µM): 0.64
- relative viability ([7]; first compound 0.04 µM): 0.683
- relative viability ([7]; first compound 0.1265 µM): 0.599
- relative viability ([7]; first compound 0.4 µM): 0.588
- relative viability ([7]; first compound 1.265 µM): 0.469
- relative viability ([7]; first compound 4 µM): 0.574
- relative viability ([8]; first compound 0.04 µM): 0.187
- relative viability ([8]; first compound 0.1265 µM): 0.282
- relative viability ([8]; first compound 1.265 µM): 0.183
- relative viability ([8]; first compound 4 µM): 0.194
- relative viability ([9]; first compound 0.04 µM): 0.394
- relative viability ([9]; first compound 0.1265 µM): 0.412
- relative viability ([9]; first compound 0.4 µM): 0.496
- relative viability ([9]; first compound 1.265 µM): 0.353
- relative viability ([9]; first compound 4 µM): 0.446
- relative viability ([10]; first compound 0.04 µM): 0.534
- relative viability ([10]; first compound 0.1265 µM): 0.484
- relative viability ([10]; first compound 0.4 µM): 0.537
- relative viability ([10]; first compound 1.265 µM): 0.536
- relative viability ([10]; first compound 4 µM): 0.528
- relative viability ([11]; first compound 0.04 µM): 0.81
- relative viability ([11]; first compound 0.1265 µM): 0.751
- relative viability ([11]; first compound 0.4 µM): 0.674
- relative viability ([11]; first compound 1.265 µM): 0.705
- relative viability ([11]; first compound 4 µM): 0.728
- relative viability ([12]; first compound 0.04 µM): 0.829
- relative viability ([12]; first compound 0.1265 µM): 0.892
- relative viability ([12]; first compound 0.4 µM): 0.832
- relative viability ([12]; first compound 1.265 µM): 0.732
- relative viability ([12]; first compound 4 µM): 0.773
- relative viability ([13]; first compound 0.04 µM): 1.18
- relative viability ([13]; first compound 0.1265 µM): 1.23
- relative viability ([13]; first compound 0.4 µM): 1.13
- relative viability ([13]; first compound 1.265 µM): 1.32
- relative viability ([13]; first compound 4 µM): 1.54
- relative viability ([14]; first compound 0.04 µM): 0.31
- relative viability ([14]; first compound 0.1265 µM): 0.332
- relative viability ([14]; first compound 1.265 µM): 0.26
- relative viability ([14]; first compound 4 µM): 0.318
- relative viability ([15]; first compound 0.04 µM): 1.16
- relative viability ([15]; first compound 0.1265 µM): 0.919
- relative viability ([15]; first compound 0.4 µM): 1.05
- relative viability ([15]; first compound 1.265 µM): 0.711
- relative viability ([15]; first compound 4 µM): 0.749
- relative viability ([16]; first compound 0.04 µM): 0.799
- relative viability ([16]; first compound 0.1265 µM): 0.694
- relative viability ([16]; first compound 0.4 µM): 0.725
- relative viability ([16]; first compound 4 µM): 0.696

Compound: C[C@@H]1CN(CC(=O)Nc2ccc3c(c2)Cc2cccc(-c4cc(=O)cc(N5CCOCC5)o4)c2S3)C[C@H](C)O1 + NC(=O)Nc1cc(-c2cccc(F)c2)sc1C(=O)N[C@H]1CCCNC1 [AZD7762] (partner 0.2 µM)
- relative viability ([1]; first compound 0.04 µM): 0.527
- relative viability ([1]; first compound 0.1265 µM): 0.546
- relative viability ([1]; first compound 0.4 µM): 0.702
- relative viability ([1]; first compound 4 µM): 0.56
- relative viability ([2]; first compound 0.1265 µM): 0.742
- relative viability ([2]; first compound 0.4 µM): 1.52
- relative viability ([2]; first compound 4 µM): 0.971
- relative viability ([3]; first compound 0.04 µM): 0.428
- relative viability ([3]; first compound 0.1265 µM): 0.405
- relative viability ([3]; first compound 0.4 µM): 0.464
- relative viability ([3]; first compound 4 µM): 0.38
- relative viability ([4]; first compound 0.04 µM): 0.799
- relative viability ([4]; first compound 0.1265 µM): 0.682
- relative viability ([4]; first compound 0.4 µM): 0.671
- relative viability ([4]; first compound 4 µM): 0.62
- relative viability ([5]; first compound 0.04 µM): 1.08
- relative viability ([5]; first compound 0.1265 µM): 1.09
- relative viability ([5]; first compound 0.4 µM): 1.12
- relative viability ([5]; first compound 4 µM): 0.95
- relative viability ([6]; first compound 0.04 µM): 0.651
- relative viability ([6]; first compound 0.1265 µM): 0.751
- relative viability ([6]; first compound 0.4 µM): 0.713
- relative viability ([6]; first compound 4 µM): 0.562
- relative viability ([7]; first compound 0.04 µM): 0.644
- relative viability ([7]; first compound 0.1265 µM): 0.565
- relative viability ([7]; first compound 0.4 µM): 0.594
- relative viability ([7]; first compound 4 µM): 0.38
- relative viability ([8]; first compound 0.04 µM): 0.205
- relative viability ([8]; first compound 0.1265 µM): 0.188
- relative viability ([8]; first compound 0.4 µM): 0.201
- relative viability ([8]; first compound 4 µM): 0.161
- relative viability ([9]; first compound 0.04 µM): 0.331
- relative viability ([9]; first compound 0.1265 µM): 0.363
- relative viability ([9]; first compound 0.4 µM): 0.293
- relative viability ([9]; first compound 4 µM): 0.432
- relative viability ([10]; first compound 0.04 µM): 0.569
- relative viability ([10]; first compound 0.1265 µM): 0.684
- relative viability ([10]; first compound 0.4 µM): 0.643
- relative viability ([10]; first compound 4 µM): 0.634
- relative viability ([11]; first compound 0.04 µM): 0.777
- relative viability ([11]; first compound 0.1265 µM): 0.739
- relative viability ([11]; first compound 0.4 µM): 0.796
- relative viability ([11]; first compound 4 µM): 0.669
- relative viability ([12]; first compound 0.04 µM): 0.792
- relative viability ([12]; first compound 0.1265 µM): 0.765
- relative viability ([12]; first compound 0.4 µM): 0.943
- relative viability ([12]; first compound 4 µM): 0.725
- relative viability ([13]; first compound 0.04 µM): 1.18
- relative viability ([13]; first compound 0.1265 µM): 1.06
- relative viability ([13]; first compound 0.4 µM): 1.37
- relative viability ([13]; first compound 4 µM): 1.05
- relative viability ([14]; first compound 0.04 µM): 0.289
- relative viability ([14]; first compound 0.1265 µM): 0.308
- relative viability ([14]; first compound 0.4 µM): 0.32
- relative viability ([14]; first compound 4 µM): 0.276
- relative viability ([15]; first compound 0.04 µM): 0.941
- relative viability ([15]; first compound 0.1265 µM): 0.955
- relative viability ([15]; first compound 4 µM): 0.929
- relative viability ([16]; first compound 0.04 µM): 0.703
- relative viability ([16]; first compound 0.1265 µM): 0.795
- relative viability ([16]; first compound 0.4 µM): 0.792
- relative viability ([16]; first compound 4 µM): 0.676
